Measured values as given in patent US20070128217A1 (priority 2003, published 2007).

Key:
[1] = test system: control sera (pooled serum of ten healthy LUMC hospital workers; commercial negative donor pooled serum from the Dutch bloodbank); type: binding, human; parameters: Binding of Control serum LUMC to linear peptides / Binding of Control serum Blood-bank to linear peptides / Binding of Control serum LUMC to looped peptides / Binding of Control Serum Blood-Bank to Looped peptides / Binding of Control serum LUMC to linear peptides of the protein M of SARS-CoV Urbani / Binding of Control serum Blood-bank to linear peptides of the protein M of SARS-CoV Urbani / Binding of Control serum LUMC to looped peptides of the protein M of SARS-CoV Urbani / Binding of Control Serum Blood-Bank to Looped peptides of the protein M of SARS-CoV Urbani: unit not given here
[2] = test system: antibodies in sera from SARS patients (sera 1a, 1b, 2, 6, 37, 62, London, SARS-yellow, SARS-green); type: binding, human; parameters: Binding of serum 6 to linear peptides of protein X1 of SARS-CoV Urbani / Binding of serum 37 to linear peptides of protein X1 of SARS-CoV Urbani / Binding of serum 6 to looped/cyclic peptide (PEPSCAN-ELISA) / Binding of serum 37 to looped/cyclic peptide (PEPSCAN-ELISA) / Binding of serum 37 to looped/cyclic peptides of protein X1 of SARS-CoV Urbani / Binding of serum 6 to linear peptides of protein X2 / Binding of serum 37 to linear peptides of protein X2 / Binding of serum 37 to looped/cyclic peptides of protein X2 of SARS-CoV Urbani / Binding of serum 6 to linear peptides of protein M of SARS-CoV Urbani / Binding of serum 37 to linear peptides of protein M of SARS-CoV Urbani / Binding of serum 6 to looped/cyclic peptides of protein M of SARS-CoV Urbani / Binding of serum 37 to looped/cyclic peptides of protein M of SARS-CoV Urbani / Binding of serum 6 to linear peptides of protein X3 of SARS-CoV Urbani / Binding of serum 37 to linear peptides of protein X3 of SARS-CoV Urbani / Binding of serum 37 to looped/cyclic peptides of protein X3 of SARS-CoV Urbani / Binding of serum 6 to linear peptides of protein X4 of SARS-CoV Urbani / Binding of serum 37 to linear peptides of protein X4 of SARS-CoV Urbani / Binding of serum 37 to looped/cyclic peptides of protein X4 of SARS-CoV Urbani / Binding of serum 6 to linear peptides of protein X5 of SARS-CoV Urbani / Binding of serum 37 to linear peptides of protein X5 of SARS-CoV Urbani / Binding of serum 37 to looped/cyclic peptides of protein X5 of SARS-CoV Urbani / Binding of serum 6 to linear peptides of protein N of SARS-CoV Urbani / Binding of serum 37 to linear peptides of protein N of SARS-CoV Urbani / Binding of serum 6 to linear peptide (PEPSCAN-ELISA) / Binding of serum 1a to looped/cyclic peptides of protein N of SARS-CoV Urbani / Binding of serum 1b to looped/cyclic peptides of protein N of SARS-CoV Urbani / Binding of serum 2 to looped/cyclic peptides of protein N of SARS-CoV Urbani / Binding of serum 6 to looped/cyclic peptides of protein N of SARS-CoV Urbani / Binding of serum 37 to looped/cyclic peptides of protein N of SARS-CoV Urbani / Binding of serum 62 to looped/cyclic peptides of protein N of SARS-CoV Urbani / Binding of serum London to looped/cyclic peptides of protein N of SARS-CoV Urbani / Binding of serum SARS-green to looped/cyclic peptides of protein N of SARS-CoV Urbani: unit not given here
[3] = test system: rabbit serum obtained by immunizing a rabbit with the SARS-CoV strain Frankfurt 1; type: binding; parameters: Binding of a rabbit serum to linear peptides / Binding of a rabbit serum to looped peptides / Rabbit serum linear peptides / Rabbit serum looped peptides / Binding of a rabbit serum to linear peptides of protein N of SARS-CoV Urbani (Rabbit serum linear peptides) / Binding of a rabbit serum to looped/cyclic peptides of protein N of SARS-CoV Urbani (Rabbit serum looped peptides): unit not given here

Row | Sequence | Recognition of the peptide by sera of SARS-CoV infected individuals, and form (linear, looped/cyclic) in which it is recognized [2] | Binding of Control Serum Blood-Bank to Looped peptides of the protein M of SARS-CoV Urbani [1] | Binding of Control serum Blood-bank to linear peptides of the protein M of SARS-CoV Urbani [1] | Binding of Control serum LUMC to linear peptides of the protein M of SARS-CoV Urbani [1] | Binding of Control serum LUMC to looped peptides of the protein M of SARS-CoV Urbani [1] | Binding of serum 1a to linear peptides of protein M of SARS-CoV Urbani [2] | Binding of serum 1b to linear peptides of protein M of SARS-CoV Urbani [2] | Binding of serum 2 to linear peptides of protein M of SARS-CoV Urbani [2] | Binding of serum 6 to linear peptides of protein M of SARS-CoV Urbani [2] | Binding of serum 37 to linear peptides of protein M of SARS-CoV Urbani [2] | Binding of serum 62 to linear peptides of protein M of SARS-CoV Urbani [2] | Binding of serum London to linear peptides of protein M of SARS-CoV Urbani [2] | Binding of serum SARS-green to linear peptides of protein M of SARS-CoV Urbani [2] | Binding of serum SARS-yellow to linear peptides of protein M of SARS-CoV Urbani [2] | Rabbit serum linear peptides [3] | Rabbit serum looped peptides [3] | further results
1 | RLLACLCKHKKVSTN | recognized in linear form | – | – | – | – | – | – | – | – | – | – | – | – | – | – | – | Binding of Control Serum Blood-Bank to Looped peptides [1]: 0.3; Binding of Control serum Blood-bank to linear peptides [1]: 0.9; Binding of Control serum LUMC to linear peptides [1]: 0.7; Binding of Control serum LUMC to looped peptides [1]: 0.4; Binding of serum 1a to looped/cyclic peptides of protein X2 of SARS-CoV Urbani [2]: 0.3; Binding of serum 1b to looped/cyclic peptides of protein X2 of SARS-CoV Urbani [2]: 0.2; Binding of serum 2 to looped/cyclic peptides of protein X2 of SARS-CoV Urbani [2]: 0.3; Binding of serum 6 to looped/cyclic peptides of protein X2 of SARS-CoV Urbani [2]: 0.3; Binding of serum 37 to looped/cyclic peptides of protein X2 of SARS-CoV Urbani [2]: 0.3; Binding of serum 62 to looped/cyclic peptides of protein X2 of SARS-CoV Urbani [2]: 0.5; Binding of serum London to looped/cyclic peptides of protein X2 of SARS-CoV Urbani [2]: 0.2; Binding of serum SARS-green to looped/cyclic peptides of protein X2 of SARS-CoV Urbani [2]: 0.3; Binding of serum SARS-yellow to looped/cyclic peptides of protein X2 of SARS-CoV Urbani [2]: 0.4; Binding of a rabbit serum to linear peptides [3]: 0.3; Binding of a rabbit serum to looped peptides [3]: 0.4
2 | RNRFLYIIKLVFLWL | recognized in looped/cyclic form | 0.7 | 0.6 | 0.7 | 0.8 | 0.6 | 0.5 | 0.4 | 0.5 | 0.4 | 0.5 | 0.3 | 0.4 | 0.3 | 0.4 | 0.5 | –
3 | RSMWSFNPETNILLN | – | 0.7 | 0.8 | 0.5 | 0.7 | 0.8 | 0.6 | 0.6 | 0.3 | 0.8 | 0.7 | 0.3 | 0.2 | 0.1 | 0.4 | 0.3 | Binding of serum 1a to looped/cyclic peptides of protein M of SARS-CoV Urbani [2]: 0.8; Binding of serum 1b to looped/cyclic peptides of protein M of SARS-CoV Urbani [2]: 0.4; Binding of serum 2 to looped/cyclic peptides of protein M of SARS-CoV Urbani [2]: 0.8; Binding of serum 6 to looped/cyclic peptides of protein M of SARS-CoV Urbani [2]: 0.7; Binding of serum 37 to looped/cyclic peptides of protein M of SARS-CoV Urbani [2]: 0.8; Binding of serum 62 to looped/cyclic peptides of protein M of SARS-CoV Urbani [2]: 0.8; Binding of serum London to looped/cyclic peptides of protein M of SARS-CoV Urbani [2]: 0.2; Binding of serum SARS-green to looped/cyclic peptides of protein M of SARS-CoV Urbani [2]: 0.4; Binding of serum SARS-yellow to looped/cyclic peptides of protein M of SARS-CoV Urbani [2]: 0.7
